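Following 48 hours of exposure in 96-well plates, responses at five concentrations were used to interpolate endpoints linearly. The concentration for 50% growth inhibition is given as GI50.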 Activity calls are given as the source filed them. No stated cut-off is given here; in the data, active = GI50 up to about 1.1 µM and inactive = higher.
How the values were obtained:
Assay in all cases: NCI anticancer screen, dose series, 48 h
ACHN = tested on: ACHN
RXF 393 = tested on: RXF 393
Hs-578T = tested on: Hs-578T
SF-295 = tested on: SF-295
SNB-19 = tested on: SNB-19
BT-549 = tested on: BT-549
A549 = tested on: A549
T47D = tested on: T47D
NCI-H226 = tested on: NCI-H226
OVCAR-8 = tested on: OVCAR-8
UO-31 = tested on: UO-31
M14 = tested on: M14
OVCAR-4 = tested on: OVCAR-4
MCF7 = tested on: MCF7
NCI/ADR-RES = tested on: NCI/ADR-RES
SF-539 = tested on: SF-539
LOX IMVI = tested on: LOX IMVI
HOP-92 = tested on: HOP-92
UACC-257 = tested on: UACC-257
SK-MEL-28 = tested on: SK-MEL-28

Measured: GI50

S=C1SCN(C2CCCCCCCCCCC2)CN1C1CCCCCCCCCCC1
inactive: ACHN > 100 µM | RXF 393 > 100 µM | Hs-578T > 100 µM | SF-295 > 100 µM | SNB-19 > 100 µM | BT-549 > 100 µM | A549 > 100 µM | T47D > 100 µM | NCI-H226 > 100 µM | OVCAR-8 > 100 µM | UO-31 > 100 µM | M14 > 100 µM | OVCAR-4 86.7 µM | MCF7 66.8 µM | NCI/ADR-RES > 100 µM | SF-539 > 100 µM | LOX IMVI > 100 µM | HOP-92 > 100 µM | UACC-257 > 100 µM | SK-MEL-28 > 100 µM

O=C1N[C@@H]2c3c(Br)sc(Br)c3C(=O)[C@@H]2N1
inactive: ACHN 4.02 µM | RXF 393 4.94 µM | Hs-578T 8.28 µM | SF-295 15.5 µM | SNB-19 11.3 µM | BT-549 17 µM | A549 12.6 µM | T47D 5.64 µM | NCI-H226 29.6 µM | OVCAR-8 2.9 µM | UO-31 3.53 µM | M14 3.82 µM | OVCAR-4 3.94 µM | MCF7 2.62 µM | NCI/ADR-RES 15.4 µM | SF-539 2.52 µM | LOX IMVI 1.93 µM | HOP-92 5.56 µM | UACC-257 3.3 µM | SK-MEL-28 3.78 µM

COC(=O)CCC(C)[C@H]1CCC2C3C(C[C@H](OC(C)=O)[C@@]21C)[C@@]1(C)CCC2(C[C@H]1C[C@H]3OC(C)=O)OOC1(CCC(C(C)(C)C)CC1)OO2 (stereo not given in full)
inactive: ACHN 5.7 µM | RXF 393 > 100 µM | Hs-578T 5.43 µM | SF-295 7.53 µM | SNB-19 > 100 µM | BT-549 33.3 µM | A549 7.24 µM | T47D 5.71 µM | NCI-H226 59 µM | OVCAR-8 12.4 µM | UO-31 12.4 µM | M14 > 100 µM | OVCAR-4 15.6 µM | MCF7 31.4 µM | NCI/ADR-RES > 100 µM | SF-539 68.7 µM | LOX IMVI 5.25 µM | HOP-92 6.59 µM | UACC-257 31.8 µM | SK-MEL-28 > 100 µM

Cn1c(S)nnc1-c1csc(-c2ccc(Cl)cc2)n1
inactive: ACHN 18.7 µM | RXF 393 19 µM | Hs-578T 29.7 µM | SF-295 15.6 µM | SNB-19 17.5 µM | BT-549 22.1 µM | A549 32.6 µM | T47D 35.3 µM | NCI-H226 23.1 µM | OVCAR-8 21.8 µM | UO-31 22.5 µM | M14 33.1 µM | OVCAR-4 26.1 µM | MCF7 37.2 µM | NCI/ADR-RES 25.2 µM | SF-539 22.2 µM | LOX IMVI 21.7 µM | HOP-92 12 µM | UACC-257 > 100 µM | SK-MEL-28 44.6 µM

c1ccc(-c2cc(-c3cc(-c4ccccc4)no3)on2)cc1
inactive: ACHN 29.3 µM | RXF 393 67.1 µM | Hs-578T 47.6 µM | SF-295 53.8 µM | SNB-19 49.3 µM | BT-549 > 100 µM | A549 53.2 µM | T47D 81.3 µM | NCI-H226 71 µM | OVCAR-8 13.8 µM | UO-31 > 100 µM | M14 > 100 µM | OVCAR-4 19.4 µM | MCF7 > 100 µM | NCI/ADR-RES 29.7 µM | SF-539 15.1 µM | LOX IMVI 40.8 µM | HOP-92 24.5 µM | UACC-257 > 100 µM | SK-MEL-28 > 100 µM

O=C(NCCCNCCCNC(=O)c1cc(-c2ccccc2)nc2ccccc12)c1cc(-c2ccccc2)nc2ccccc12
inactive: ACHN 2.12 µM | RXF 393 1.77 µM | Hs-578T 2.35 µM | SF-295 1.88 µM | SNB-19 1.72 µM | BT-549 10.2 µM | A549 1.83 µM | T47D 2.02 µM | NCI-H226 1.69 µM | OVCAR-8 2.56 µM | UO-31 1.83 µM | M14 1.79 µM | OVCAR-4 1.74 µM | MCF7 1.66 µM | NCI/ADR-RES 2.39 µM | SF-539 2.47 µM | LOX IMVI 1.8 µM | HOP-92 2.02 µM | UACC-257 1.97 µM | SK-MEL-28 1.77 µM

O=C(C1OC1c1ccc(O)cc1)C12CC3CC(CC(C3)C1)C2 (stereo not given)
inactive: ACHN 42 µM | RXF 393 > 78.3 µM | Hs-578T > 100 µM | SF-295 > 88.9 µM | SNB-19 > 100 µM | BT-549 31.2 µM | A549 95.3 µM | T47D 22.9 µM | NCI-H226 > 100 µM | OVCAR-8 50 µM | UO-31 32.1 µM | M14 > 64.3 µM | OVCAR-4 51.3 µM | MCF7 > 55.3 µM | NCI/ADR-RES 52.1 µM | SF-539 45 µM | LOX IMVI > 40.2 µM | HOP-92 32.3 µM | UACC-257 57 µM | SK-MEL-28 > 100 µM

O=C1NNC2(C(=O)N1)c1ccccc1-c1ccccc12
inactive: ACHN > 10 µM | RXF 393 > 10 µM | Hs-578T > 10 µM | SF-295 > 10 µM | SNB-19 > 10 µM | BT-549 > 10 µM | A549 > 10 µM | T47D 2.55 µM | NCI-H226 > 10 µM | OVCAR-8 > 10 µM | UO-31 > 10 µM | M14 > 10 µM | OVCAR-4 > 10 µM | MCF7 > 10 µM | NCI/ADR-RES > 10 µM | SF-539 > 10 µM | LOX IMVI > 10 µM | HOP-92 > 10 µM | UACC-257 > 10 µM | SK-MEL-28 > 10 µM

O=C1Nc2ccccc2NC1C1OC(c2ccccc2)=CC1=O (stereo not given)
inactive: ACHN > 100 µM | RXF 393 > 100 µM | Hs-578T > 100 µM | SF-295 > 100 µM | SNB-19 > 100 µM | BT-549 > 100 µM | A549 > 100 µM | T47D > 100 µM | NCI-H226 > 100 µM | OVCAR-8 > 100 µM | UO-31 > 100 µM | M14 > 100 µM | OVCAR-4 > 100 µM | MCF7 > 100 µM | NCI/ADR-RES 82.2 µM | SF-539 > 100 µM | LOX IMVI > 100 µM | HOP-92 > 100 µM | UACC-257 40.8 µM | SK-MEL-28 > 100 µM

O=c1[nH]c(=O)n(C2CC(O)C(CS)O2)cc1F (stereo not given)
inactive: ACHN 21.4 µM | RXF 393 > 100 µM | Hs-578T > 100 µM | SF-295 47 µM | SNB-19 98.4 µM | BT-549 > 100 µM | A549 23.6 µM | T47D > 76.2 µM | NCI-H226 > 100 µM | OVCAR-8 14.8 µM | UO-31 60.4 µM | M14 > 100 µM | OVCAR-4 > 92.7 µM | MCF7 8.38 µM | NCI/ADR-RES 5.4 µM | SF-539 11 µM | LOX IMVI 61.9 µM | HOP-92 9.79 µM | UACC-257 > 100 µM | SK-MEL-28 74.1 µM

CC1(c2cccs2)CC(c2cccs2)=C(C#N)C(=C(C#N)C#N)N1 (stereo not given)
inactive: ACHN 17.5 µM | RXF 393 18.3 µM | Hs-578T 30.9 µM | SF-295 16.9 µM | SNB-19 18.7 µM | BT-549 21.5 µM | A549 22 µM | T47D 16.6 µM | NCI-H226 22.3 µM | OVCAR-8 17.3 µM | UO-31 18.9 µM | M14 20.4 µM | OVCAR-4 16.4 µM | MCF7 18.5 µM | NCI/ADR-RES 21.3 µM | SF-539 25.2 µM | LOX IMVI 16.1 µM | HOP-92 14.8 µM | UACC-257 17.6 µM | SK-MEL-28 20.4 µM

CCOC(=O)C1(C(=O)OCC)C[C@H]2CON=C2[C@@H]1c1ccc(C(F)(F)F)cc1
inactive: ACHN 19.1 µM | RXF 393 43.6 µM | Hs-578T 98.6 µM | SF-295 41.5 µM | SNB-19 > 100 µM | BT-549 44.7 µM | A549 75 µM | T47D 16.7 µM | NCI-H226 34.9 µM | OVCAR-8 79.4 µM | UO-31 14.2 µM | M14 55.1 µM | OVCAR-4 17.7 µM | MCF7 35.9 µM | NCI/ADR-RES 32.6 µM | SF-539 > 100 µM | LOX IMVI 16.6 µM | HOP-92 50.4 µM | UACC-257 30.8 µM | SK-MEL-28 > 100 µM

CCC(C)C(C(=O)N/N=C1/SCC(=O)N1C)C(=O)N/N=C1/SCC(=O)N1C (stereo not given)
inactive: ACHN > 100 µM | RXF 393 > 100 µM | Hs-578T > 100 µM | SF-295 > 100 µM | SNB-19 > 100 µM | BT-549 > 100 µM | A549 > 100 µM | T47D > 100 µM | NCI-H226 > 100 µM | OVCAR-8 > 100 µM | UO-31 > 100 µM | M14 > 100 µM | OVCAR-4 > 100 µM | MCF7 > 100 µM | NCI/ADR-RES > 100 µM | SF-539 > 100 µM | LOX IMVI > 100 µM | HOP-92 > 100 µM | UACC-257 > 100 µM | SK-MEL-28 > 100 µM

Oc1cc(Cc2ccccc2)c(Cc2ccccc2)cc1O
inactive: ACHN > 10 µM | RXF 393 > 10 µM | Hs-578T > 10 µM | SF-295 > 10 µM | SNB-19 > 10 µM | BT-549 > 10 µM | A549 > 10 µM | T47D > 10 µM | NCI-H226 > 10 µM | OVCAR-8 > 10 µM | UO-31 > 10 µM | M14 > 10 µM | OVCAR-4 > 10 µM | MCF7 > 10 µM | NCI/ADR-RES > 10 µM | SF-539 > 10 µM | LOX IMVI > 10 µM | HOP-92 > 10 µM | UACC-257 > 10 µM | SK-MEL-28 > 10 µM

Source: ChEMBL document CHEMBL1201862, “PubChem BioAssay data set” (2004)
